From patent publication US20240294522A1 (Lead Discovery Center GmbH, priority 2021, published 2024)
pIC50: −log10 of the molar value.

Tests used:
[1] = biological target: T1, GRK5 (Homo sapiens, UniProt P34947); experiment: Lance Kinase Activity Assay, GRK5; conditions: biochemical Lance kinase activity assay; class symbols A-F; read-out: GRK5 LANCE Assay (IC-50)
T1 construct: purchased Thermo Scientific
Method in brief: (§1)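 IC50s from sigmoidal dose-response over 0.0025-10 μM compound, with phosphorylated ULight substrate detected by Eu anti-phospho antibody FRET after EDTA quench.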

[2] = biological target: T2, GRK2 (Homo sapiens, UniProt P25098); experiment: Lance Kinase Activity Assay, GRK2; conditions: biochemical Lance kinase activity assay; class symbols A-F; read-out: GRK2 LANCE Assay (IC-50)
T2 construct: purchased Thermo Scientific
T2 sequence (P25098 1-689): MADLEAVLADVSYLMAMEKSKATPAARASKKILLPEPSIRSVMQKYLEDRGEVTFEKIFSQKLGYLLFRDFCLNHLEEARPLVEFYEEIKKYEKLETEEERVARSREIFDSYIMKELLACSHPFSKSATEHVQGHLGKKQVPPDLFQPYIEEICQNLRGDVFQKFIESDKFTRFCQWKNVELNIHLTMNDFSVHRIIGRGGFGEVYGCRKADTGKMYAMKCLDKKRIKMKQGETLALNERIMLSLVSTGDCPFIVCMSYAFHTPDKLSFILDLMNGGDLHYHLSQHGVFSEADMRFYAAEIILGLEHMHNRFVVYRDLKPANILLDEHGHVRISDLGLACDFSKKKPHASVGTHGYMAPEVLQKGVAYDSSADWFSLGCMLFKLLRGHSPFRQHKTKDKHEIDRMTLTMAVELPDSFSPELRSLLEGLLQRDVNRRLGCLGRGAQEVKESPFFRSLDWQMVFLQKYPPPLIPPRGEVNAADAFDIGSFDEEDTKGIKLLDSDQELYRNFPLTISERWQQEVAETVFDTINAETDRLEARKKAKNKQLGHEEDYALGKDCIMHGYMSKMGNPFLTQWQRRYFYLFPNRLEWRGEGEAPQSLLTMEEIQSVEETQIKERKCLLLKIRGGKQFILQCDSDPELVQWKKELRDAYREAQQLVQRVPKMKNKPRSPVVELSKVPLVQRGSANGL
Method in brief: as §1

T1 sequence (P34947 whole entry): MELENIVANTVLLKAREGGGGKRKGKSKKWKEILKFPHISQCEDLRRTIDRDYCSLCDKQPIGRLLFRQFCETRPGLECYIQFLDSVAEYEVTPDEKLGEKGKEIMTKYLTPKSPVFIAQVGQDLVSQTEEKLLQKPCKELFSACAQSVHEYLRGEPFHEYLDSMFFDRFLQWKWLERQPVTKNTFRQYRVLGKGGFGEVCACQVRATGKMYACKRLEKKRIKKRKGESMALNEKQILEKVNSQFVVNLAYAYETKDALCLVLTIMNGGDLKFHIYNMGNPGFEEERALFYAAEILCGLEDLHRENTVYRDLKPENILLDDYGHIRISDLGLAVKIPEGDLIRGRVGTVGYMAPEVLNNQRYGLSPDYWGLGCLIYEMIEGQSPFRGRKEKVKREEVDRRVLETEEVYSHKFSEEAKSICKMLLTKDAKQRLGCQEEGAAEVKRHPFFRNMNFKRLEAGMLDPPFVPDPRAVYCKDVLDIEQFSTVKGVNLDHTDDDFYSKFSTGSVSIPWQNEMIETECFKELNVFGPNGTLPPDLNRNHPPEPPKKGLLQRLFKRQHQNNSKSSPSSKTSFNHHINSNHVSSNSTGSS

pIC50 [1] | pIC50 [2] | Compound
≥ 7.30 | 5.00 to 6.00 | COc1ccc([C@@H](C)NC(=O)/C=C/c2c[nH]c3ncc(-c4cnn(CCN5CCOCC5)c4)cc23)cc1OC [Example 210, (R,E)-N-(1-(3,4-dimethoxyphenyl)ethyl)-3-(5-(1-(2-morpholinoethyl)-1H-pyrazol-4-yl)-1H-pyrrolo[2,3-b]pyridin-3-yl)acrylamide]
7.00 to 7.30 | < 5.00 | COc1ccc([C@@H](C)NC(=O)/C=C/c2c[nH]c3ncc(-c4c(C)nn(C)c4C)cc23)cc1OC [Example 209, (R,E)-N-(1-(3,4-dimethoxyphenyl)ethyl)-3-(5-(1,3,5-trimethyl-1H-pyrazol-4-yl)-1H-pyrrolo[2,3-b]pyridin-3-yl)acrylamide]
6.00 to 6.30 | < 5.00 | COc1ccc([C@@H](C)NC(=O)/C(C#N)=C/c2c[nH]c3ncc(-c4ccc(F)c(S(C)(=O)=O)c4)c(C)c23)cc1OC [Example 245, (R,E)-2-cyano-N-(1-(3,4-dimethoxyphenyl)ethyl)-3-(5-(4-fluoro-3-(methylsulfonyl)phenyl)-4-methyl-1H-pyrrolo[2,3-b]pyridin-3-yl)acrylamide]
≥ 7.30 | 5.00 to 6.00 | COc1ccc([C@@H](C)NC(=O)/C=C/c2c[nH]c3ncc(-c4cn(C)nc4C)cc23)cc1OC [Example 212, (R,E)-N-(1-(3,4-dimethoxyphenyl)ethyl)-3-(5-(1,3-dimethyl-1H-pyrazol-4-yl)-1H-pyrrolo[2,3-b]pyridin-3-yl)acrylamide]
≥ 7.30 | 5.00 to 6.00 | COc1ccc([C@@H](C)NC(=O)/C(C#N)=C/c2c[nH]c3nccc(-c4ccccc4)c23)cc1OC [Example 175]
≥ 7.30 | 6.30 to 7.00 | COc1ccc([C@@H](C)NC(=O)/C=C/c2c[nH]c3ncc(-c4ccc(C5CCN(C)CC5)cc4)cc23)cc1OC [Example 196, (R,E)-N-(1-(3,4-dimethoxyphenyl)ethyl)-3-(5-(4-(1-methylpiperidin-4-yl)phenyl)-1H-pyrrolo[2,3-b]pyridin-3-yl)acrylamide]
≥ 7.30 | 5.00 to 6.00 | COc1ccc([C@@H](C)NC(=O)/C(C#N)=C/c2c[nH]c3ncc(-c4cn(C)nc4C)cc23)cc1OC [Example 168, (R,E)-2-cyano-N-(1-(3,4-dimethoxyphenyl)ethyl)-3-(5-(1,3-dimethyl-1H-pyrazol-4-yl)-1H-pyrrolo[2,3-b]pyridin-3-yl)acrylamide]
7.00 to 7.30 | 5.00 to 6.00 | COc1ccc([C@@H](C)NC(=O)/C=C/c2c[nH]c3nccc(-c4ccc(NS(C)(=O)=O)cc4)c23)cc1OC [Example 226, (R,E)-N-(1-(3,4-dimethoxyphenyl)ethyl)-3-(4-(4-(methylsulfonamido)phenyl)-1H-pyrrolo[2,3-b]pyridin-3-yl)acrylamide]
7.00 to 7.30 | < 5.00 | COc1ccc([C@@H](C)NC(=O)/C=C/c2c[nH]c3ncc(-c4ccc(CN(C)C)cc4)cc23)cc1OC [Example 184]
≥ 7.30 | 6.00 to 6.30 | COc1ccc([C@@H](C)NC(=O)/C=C/c2c[nH]c3ncc(-c4ccc(OCCN(C)C)cc4)cc23)cc1OC [Example 197, (R,E)-N-(1-(3,4-dimethoxyphenyl)ethyl)-3-(5-(4-(2-(dimethylamino)ethoxy)phenyl)-1H-pyrrolo[2,3-b]pyridin-3-yl)acrylamide]
≥ 7.30 | 5.00 to 6.00 | COc1ccc([C@@H](C)NC(=O)/C=C/c2c[nH]c3ncc(-c4cccc(NS(C)(=O)=O)c4)cc23)cc1OC [Example 193]
≥ 7.30 | 5.00 to 6.00 | COc1ccc([C@@H](C)NC(=O)/C=C/c2c[nH]c3ncc(-c4cnn(C5COC5)c4)cc23)cc1OC [Example 215, (R,E)-N-(1-(3,4-dimethoxyphenyl)ethyl)-3-(5-(1-(oxetan-3-yl)-1H-pyrazol-4-yl)-1H-pyrrolo[2,3-b]pyridin-3-yl)acrylamide]
≥ 7.30 | 5.00 to 6.00 | COc1ccc([C@@H](C)NC(=O)/C=C/c2c[nH]c3ncc(-c4cc(S(C)(=O)=O)ccn4)cc23)cc1OC [Example 259, (R,E)-N-(1-(3,4-dimethoxyphenyl)ethyl)-3-(5-(4-(methylsulfonyl)pyridin-2-yl)-1H-pyrrolo[2,3-b]pyridin-3-yl)acrylamide]
6.30 to 7.00 | < 5.00 | COc1ccc([C@@H](C)NC(=O)/C=C/c2c[nH]c3nccc(-c4cccc(CNC(C)=O)c4)c23)cc1OC [Example 243, (R,E)-3-(4-(3-(acetamidomethyl)phenyl)-1H-pyrrolo[2,3-b]pyridin-3-yl)-N-(1-(3,4-dimethoxyphenyl)ethyl)acrylamide]
≥ 7.30 | 5.00 to 6.00 | COc1ccc([C@@H](C)NC(=O)/C=C/c2c[nH]c3ncc(-c4cccc(N5CCN(C)CC5)c4)cc23)cc1OC [Example 185]
≥ 7.30 | 5.00 to 6.00 | COc1ccc([C@@H](C)NC(=O)/C=C/c2c[nH]c3ncc(-c4cccnc4)cc23)cc1OC [Example 186, (R,E)-N-(1-(3,4-dimethoxyphenyl)ethyl)-3-(5-(pyridin-3-yl)-1H-pyrrolo[2,3-b]pyridin-3-yl)acrylamide]
≥ 7.30 | 5.00 to 6.00 | COc1ccc([C@@H](C)NC(=O)/C=C/c2c[nH]c3ncc(-c4ccc(NS(C)(=O)=O)cc4)cc23)cc1OC [Example 187]

Continued, compound first:

Compound | pIC50 [1] | pIC50 [2]
COc1ccc([C@@H](C)NC(=O)/C(C#N)=C/c2c[nH]c3ncc(-c4ccc(NC(C)=O)cc4)cc23)cc1OC [Example 142] | ≥ 7.30 | 5.00 to 6.00
CCN(CC)CCC(NC(=O)/C(C#N)=C/c1c[nH]c2ncccc12)c1ccccc1 (stereo not shown) [Example 52, (E)-2-cyano-N-(3-(diethylamino)-1-phenylpropyl)-3-(1H-pyrrolo[2,3-b]pyridin-3-yl)acrylamide] | 6.30 to 7.00 | 6.30 to 7.00
N#C/C(=C\c1c[nH]c2ncccc12)C(=O)NCc1ccccc1CN1CCOCC1 [Example 37, (E)-2-cyano-N-(2-(morpholinomethyl)benzyl)-3-(1H-pyrrolo[2,3-b]pyridin-3-yl)acrylamide] | 5.00 to 6.00 | < 5.00
N#C/C(=C\c1c[nH]c2ncccc12)C(=O)NCc1cccc2[nH]ncc12 [Example 45, (E)-N-((1H-indazol-4-yl)methyl)-2-cyano-3-(1H-pyrrolo[2,3-b]pyridin-3-yl)acrylamide] | 6.00 to 6.30 | 5.00 to 6.00
COc1ccc([C@@H](C)NC(=O)/C(C#N)=C/c2c[nH]c3ncc(OC4CCOC4)cc23)cc1OC (stereo partly drawn) [Example 103, (E)-2-cyano-N-((R)-1-(3,4-dimethoxyphenyl)ethyl)-3-(5-((tetrahydrofuran-3-yl)oxy)-1H-pyrrolo[2,3-b]pyridin-3-yl)acrylamide] | ≥ 7.30 | 5.00 to 6.00
COc1ccc([C@@H](C)NC(=O)/C(C#N)=C/c2c[nH]c3ncc(-c4cnn(CC(C)C)c4)cc23)cc1OC [Example 161, (R,E)-2-cyano-N-(1-(3,4-dimethoxyphenyl)ethyl)-3-(5-(1-isobutyl-1H-pyrazol-4-yl)-1H-pyrrolo[2,3-b]pyridin-3-yl)acrylamide] | ≥ 7.30 | < 5.00
N#C/C(=C\c1c[nH]c2ncccc12)C(=O)N[C@@H](c1ccccc1)C(F)(F)F [Example 14, (S,E)-2-cyano-3-(1H-pyrrolo[2,3-b]pyridin-3-yl)-N-(2,2,2-trifluoro-1-phenylethyl)acrylamide] | 6.00 to 6.30 | 5.00 to 6.00
C[C@@H](NC(=O)/C(C#N)=C/c1c[nH]c2ncccc12)c1ccc(F)cc1 [Example 69, (R,E)-2-cyano-N-(1-(4-fluorophenyl)ethyl)-3-(1H-pyrrolo[2,3-b]pyridin-3-yl)acrylamide] | ≥ 7.30 | 7.00 to 7.30
COc1ccc([C@@H](C)NC(=O)/C(C#N)=C/c2c[nH]c3ncc(-c4ccc(F)cc4OC)cc23)cc1OC [Example 123] | 6.30 to 7.00 | < 5.00
COc1ccc([C@@H](C)NC(=O)/C(C#N)=C/c2c[nH]c3ncc(-c4ccc(C(N)=O)cc4)cc23)cc1OC [Example 126, (R,E)-4-(3-(2-cyano-3-((1-(3,4-dimethoxyphenyl)ethyl)amino)-3-oxoprop-1-en-1-yl)-1H-pyrrolo[2,3-b]pyridin-5-yl)benzamide] | 7.00 to 7.30 | < 5.00
N#C/C(=C\c1c[nH]c2ncccc12)C(=O)NCc1ccc(S(N)(=O)=O)cc1 [Example 21, (E)-2-cyano-3-(1H-pyrrolo[2,3-b]pyridin-3-yl)-N-(4-sulfamoylbenzyl)acrylamide] | 5.00 to 6.00 | < 5.00
Cc1c(-c2cnn(C)c2)cnc2[nH]cc(/C=C(\C#N)C(=O)N[C@H](C)c3ccccc3)c12 [Example 97, (R,E)-2-cyano-3-(4-methyl-5-(1-methyl-1H-pyrazol-4-yl)-1H-pyrrolo[2,3-b]pyridin-3-yl)-N-(1-phenylethyl)acrylamide] | 6.00 to 6.30 | 6.00 to 6.30
